{
  "source": "ChEMBL document CHEMBL1125888",
  "about": "“Inhibitors of cholesterol biosynthesis. 3. Tetrahydro-4-hydroxy-6-[2-(1H-pyrrol-1-yl)ethyl]-2H-pyran-2-one inhibitors of HMG-CoA reductase. 2. Effects of introducing substituents at positions three and four of the pyrrole nucleus” (J Med Chem, 1991)",
  "key": {"[1]": {"biological_target": "T1, 3-hydroxy-3-methylglutaryl-coenzyme A reductase (Rattus norvegicus) (UniProt P51639)", "T1 sequence (whole entry)": "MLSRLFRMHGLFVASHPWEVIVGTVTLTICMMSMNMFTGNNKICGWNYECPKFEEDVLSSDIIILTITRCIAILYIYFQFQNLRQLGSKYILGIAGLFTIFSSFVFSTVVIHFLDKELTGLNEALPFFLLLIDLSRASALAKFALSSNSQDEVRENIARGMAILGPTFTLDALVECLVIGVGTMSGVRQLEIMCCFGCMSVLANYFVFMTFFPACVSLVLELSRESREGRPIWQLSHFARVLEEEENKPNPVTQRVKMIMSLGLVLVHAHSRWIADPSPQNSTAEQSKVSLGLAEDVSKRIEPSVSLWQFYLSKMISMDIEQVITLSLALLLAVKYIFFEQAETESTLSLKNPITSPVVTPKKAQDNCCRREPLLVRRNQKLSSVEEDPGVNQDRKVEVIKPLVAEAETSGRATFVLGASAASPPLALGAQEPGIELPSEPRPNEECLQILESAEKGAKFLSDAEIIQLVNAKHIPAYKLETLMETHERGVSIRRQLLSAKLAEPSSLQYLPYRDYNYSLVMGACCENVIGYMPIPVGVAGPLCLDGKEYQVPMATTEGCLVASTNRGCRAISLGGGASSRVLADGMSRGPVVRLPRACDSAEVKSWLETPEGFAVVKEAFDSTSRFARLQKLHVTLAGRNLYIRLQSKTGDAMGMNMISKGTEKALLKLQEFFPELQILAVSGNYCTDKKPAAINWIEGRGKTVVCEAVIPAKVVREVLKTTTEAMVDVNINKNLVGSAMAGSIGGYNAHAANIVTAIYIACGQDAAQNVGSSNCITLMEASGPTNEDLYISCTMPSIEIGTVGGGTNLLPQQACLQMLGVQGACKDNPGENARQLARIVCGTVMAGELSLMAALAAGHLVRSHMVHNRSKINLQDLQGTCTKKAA", "test": "Relative potency against HMG-CoA reductase activity in partially purified rat liver", "assay_type": "functional"}, "[2]": {"biological_target": "T2, 3-hydroxy-3-methylglutaryl-coenzyme A reductase (Rattus norvegicus, UniProt P51639)", "T2 sequence (P51639 whole entry)": "T1 sequence (whole entry)", "test": "Inhibition of HMG-CoA reductase activity in partially purified rat liver"}},
  "note": "pIC50: −log10 of the molar value.",
  "data": [
    {"smiles": "CC(C)c1cc(-c2ccccn2)c(-c2ccc(F)cc2)n1CC[C@@H]1C[C@@H](O)CC(=O)O1", "values": [
      {"measurement": "Relative potency", "setting": "[1]", "result": 76},
      {"measurement": "pIC50", "setting": "[2]", "result": 7.34}
    ]},
    {"smiles": "CCOC(=O)c1c(-c2ccccc2)c(-c2ccccc2)n(CC[C@@H]2C[C@@H](O)CC(=O)O2)c1C", "values": [
      {"measurement": "Relative potency", "setting": "[1]", "result": 0.6},
      {"measurement": "pIC50", "setting": "[2]", "result": 5.40}
    ]},
    {"smiles": "CC(C)c1cc(-c2cccnc2)c(-c2ccc(F)cc2)n1CC[C@@H]1C[C@@H](O)CC(=O)O1", "values": [
      {"measurement": "Relative potency", "setting": "[1]", "result": 9.4},
      {"measurement": "pIC50", "setting": "[2]", "result": 7.15}
    ]},
    {"smiles": "CC(C)c1cc(C(=O)C(F)(F)F)c(-c2ccc(F)cc2)n1CC[C@@H]1C[C@@H](O)CC(=O)O1", "values": [
      {"measurement": "Relative potency", "setting": "[1]", "result": 8.8},
      {"measurement": "pIC50", "setting": "[2]", "result": 6.10}
    ]},
    {"smiles": "CCOC(=O)c1c(-c2ccccc2)c(C(C)C)n(CC[C@@H]2C[C@@H](O)CC(=O)O2)c1-c1ccc(F)cc1", "values": [
      {"measurement": "Relative potency", "setting": "[1]", "result": 100},
      {"measurement": "pIC50", "setting": "[2]", "result": 7.30}
    ]},
    {"smiles": "CC(C)c1ccc(-c2ccc(F)cc2)n1CC[C@@H]1C[C@@H](O)CC(=O)O1", "values": [
      {"measurement": "Relative potency", "setting": "[1]", "result": 10.9}
    ]},
    {"smiles": "CC(C)c1c(C(=O)Nc2ccccc2)c(-c2ccccc2)c(-c2ccc(F)cc2)n1CC[C@@H]1C[C@@H](O)CC(=O)O1", "note": "(stereo in doubt; (+)-33) [ATORVASTATIN LACTONE]", "values": [
      {"measurement": "pIC50", "setting": "[2]", "result": 8.15}
    ]},
    {"smiles": "CC(C)c1c(C(=O)Nc2ccccc2)c(-c2ccccc2)c(-c2ccc(F)cc2)n1CC[C@@H]1C[C@@H](O)CC(=O)O1", "note": "(racemic) [ATORVASTATIN LACTONE]", "values": [
      {"measurement": "pIC50", "setting": "[2]", "result": 7.60}
    ]},
    {"smiles": "CC(C)c1c(Br)c(Br)c(-c2ccc(F)cc2)n1CC[C@@H]1C[C@@H](O)CC(=O)O1", "values": [
      {"measurement": "Relative potency", "setting": "[1]", "result": 78.6},
      {"measurement": "pIC50", "setting": "[2]", "result": 7.55}
    ]},
    {"smiles": "CC(C)c1cc(-c2ccncc2)c(-c2ccc(F)cc2)n1CC[C@@H]1C[C@@H](O)CC(=O)O1", "values": [
      {"measurement": "Relative potency", "setting": "[1]", "result": 2.1},
      {"measurement": "pIC50", "setting": "[2]", "result": 6.51}
    ]},
    {"smiles": "CC(C)c1c(Cl)c(Cl)c(-c2ccc(F)cc2)n1CC[C@@H]1C[C@@H](O)CC(=O)O1", "values": [
      {"measurement": "Relative potency", "setting": "[1]", "result": 78.6},
      {"measurement": "pIC50", "setting": "[2]", "result": 7.55}
    ]},
    {"smiles": "Cc1c(C)c(C(C)C)n(CC[C@@H]2C[C@@H](O)CC(=O)O2)c1-c1ccc(F)cc1", "values": [
      {"measurement": "Relative potency", "setting": "[1]", "result": 16},
      {"measurement": "pIC50", "setting": "[2]", "result": 6.85}
    ]},
    {"smiles": "CC(C)c1c(C(=O)Nc2ccccc2)c(-c2ccccc2)c(-c2ccc(F)cc2)n1CC[C@@H]1C[C@@H](O)CC(=O)O1", "note": "(stereo in doubt; (-)-33)", "values": [
      {"measurement": "Relative potency", "setting": "[1]", "result": 13.9}
    ]},
    {"smiles": "CCOC(=O)c1c(-c2ccccc2)c(-c2ccc(F)cc2)n(CC[C@@H]2C[C@@H](O)CC(=O)O2)c1C(C)C", "values": [
      {"measurement": "Relative potency", "setting": "[1]", "result": 35.5},
      {"measurement": "pIC50", "setting": "[2]", "result": 6.70}
    ]},
    {"smiles": "CC(C)c1c(C(=O)Nc2ccccc2)c(-c2ccccc2)c(-c2ccc(F)cc2)n1CC[C@@H]1C[C@@H](O)CC(=O)O1", "note": "(stereo in doubt; (-)-33) [ATORVASTATIN LACTONE]", "values": [
      {"measurement": "pIC50", "setting": "[2]", "result": 6.36}
    ]},
    {"smiles": "CCOC(=O)c1c(-c2ccccc2)c(-c2ccccc2)n(CC[C@@H]2C[C@@H](O)CC(=O)O2)c1C(C)C", "values": [
      {"measurement": "Relative potency", "setting": "[1]", "result": 23.5},
      {"measurement": "pIC50", "setting": "[2]", "result": 6.77}
    ]},
    {"smiles": "COC(=O)c1c(C(=O)OC)c(C(C)C)n(CC[C@@H]2C[C@@H](O)CC(=O)O2)c1-c1ccc(F)cc1", "values": [
      {"measurement": "Relative potency", "setting": "[1]", "result": 14.3},
      {"measurement": "pIC50", "setting": "[2]", "result": 6.74}
    ]},
    {"smiles": "CC[C@H](C)C(=O)O[C@H]1CCC=C2C=C[C@H](C)[C@H](CC[C@@H]3C[C@@H](O)CC(=O)O3)[C@H]21", "note": "[MEVASTATIN]", "values": [
      {"measurement": "Relative potency", "setting": "[1]", "result": 100},
      {"measurement": "pIC50", "setting": "[2]", "result": 7.52}
    ]},
    {"smiles": "CC(C)c1c(-c2ccccc2)cc(-c2ccc(F)cc2)n1CC[C@@H]1C[C@@H](O)CC(=O)O1", "values": [
      {"measurement": "Relative potency", "setting": "[1]", "result": 36.3},
      {"measurement": "pIC50", "setting": "[2]", "result": 6.92}
    ]},
    {"smiles": "CCOC(=O)c1c(-c2ccc(C#N)cc2)c(-c2ccc(F)cc2)n(CC[C@@H]2C[C@@H](O)CC(=O)O2)c1C(C)C", "values": [
      {"measurement": "Relative potency", "setting": "[1]", "result": 16.2},
      {"measurement": "pIC50", "setting": "[2]", "result": 6.55}
    ]},
    {"smiles": "CC(C)c1c(C(=O)OCc2ccccc2)c(-c2ccccc2)c(-c2ccc(F)cc2)n1CC[C@@H]1C[C@@H](O)CC(=O)O1", "values": [
      {"measurement": "Relative potency", "setting": "[1]", "result": 24},
      {"measurement": "pIC50", "setting": "[2]", "result": 7.40}
    ]},
    {"smiles": "CC(C)c1cc(-c2ccccc2)c(-c2ccc(F)cc2)n1CC[C@@H]1C[C@@H](O)CC(=O)O1", "values": [
      {"measurement": "Relative potency", "setting": "[1]", "result": 12.5},
      {"measurement": "pIC50", "setting": "[2]", "result": 6.46}
    ]},
    {"smiles": "CCOC(=O)c1c(-c2ccccc2)c(-c2ccccc2)n(CC[C@@H]2C[C@@H](O)CC(=O)O2)c1CC", "values": [
      {"measurement": "Relative potency", "setting": "[1]", "result": 6.3},
      {"measurement": "pIC50", "setting": "[2]", "result": 6.05}
    ]},
    {"smiles": "CCOC(=O)c1c(C(=O)OCC)c(C(C)C)n(CC[C@@H]2C[C@@H](O)CC(=O)O2)c1-c1ccc(F)cc1", "values": [
      {"measurement": "Relative potency", "setting": "[1]", "result": 2.8},
      {"measurement": "pIC50", "setting": "[2]", "result": 6.46}
    ]},
    {"smiles": "CC(C)c1c(C(=O)Nc2ccccc2)c(-c2ccccc2)c(-c2ccc(F)cc2)n1CC[C@@H]1C[C@@H](O)CC(=O)O1", "note": "(stereo in doubt; (+)-33)", "values": [
      {"measurement": "Relative potency", "setting": "[1]", "result": 500}
    ]},
    {"smiles": "CC(C)c1c(C(=O)Nc2ccccc2)c(-c2ccccc2)c(-c2ccc(F)cc2)n1CC[C@@H]1C[C@@H](O)CC(=O)O1", "note": "(racemic)", "values": [
      {"measurement": "Relative potency", "setting": "[1]", "result": 81.4}
    ]}
  ]
}
